Assay results from article PMC12345137 (mBio, 2025).
Read-outs that look alike come from different tables or passages of the source. Positions of bridges follow the written chain, without caps; N, C: chain ends. Residues, ends and D or L forms follow the SMILES beside them.

Key:
S. epidermidis agr-II = S. epidermidis agr-II (Staphylococcus epidermidis, UniProt Q8VSX5); experiment: cell-based; format: cell-based; conditions: fluorescent reporter strain; peptides tested at 1000, 50, 2.5, 0.125 nM or in dose-response
Sequence of S. epidermidis agr-II (Q8VSX5 entry or part of it): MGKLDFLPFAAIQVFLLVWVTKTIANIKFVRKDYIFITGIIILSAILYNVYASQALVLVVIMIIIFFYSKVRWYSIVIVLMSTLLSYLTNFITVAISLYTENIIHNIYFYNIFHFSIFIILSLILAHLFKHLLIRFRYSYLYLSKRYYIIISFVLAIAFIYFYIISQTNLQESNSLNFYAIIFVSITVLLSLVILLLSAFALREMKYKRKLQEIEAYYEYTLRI
Protocol: (§1) Peptides were evaluated for the ability to interfere with agr-mediated quorum sensing in S. aureus (AH1677, AH430, AH1747, and AH1872 for agr-I–IV, respectively) ([40]) using reporter strains expressing yellow fluorescent protein (YFP) upon agr activation. Interference with agr-mediated quorum sensing in S. epidermidis (AH3408, AH3623, and AH3409 for agr-I–III, respectively) ([45]), and S. lugdunensis (AH4031 for agr-I) ([37]) was evaluated using reporter strains expressing superfolder green fluorescent protein (sGFP) upon agr activation. Overnight cultures of the reporter strains were grown in TSB medium containing chloramphenicol (CAM, 10 μg/mL for S. aureus) or erythromycin (ERM, 10 μg/mL of S. epidermidis and S. lugdunensis) and diluted 1:100 in fresh TSB medium containing the same antibiotic. Assays were performed in sterile black 96-well plates with a clear bottom. […] DMSO stock solutions of peptides (1 mM) were diluted in TSB media and added (15 μL) in technical triplicate to the 96-well plate, followed by diluted bacterial overnight cultures (135 μL). Control wells for 100% agr activity were wells replacing the peptide solution with TSB medium (15 μL). […] Wells containing 150 μL TSB medium were used to measure background fluorescence. The 96-well plates were incubated in a humidified incubator at 37°C shaking at 1,000 rpm for 22–24 h and fluorescence (for GFP: excitation 479 nm, emission 520 nm; for YFP: excitation 500 nm, emission 541 nm; automatic gain), and OD600 values were subsequently measured using a plate reader. Background fluorescence was subtracted from all wells and further normalized to the corresponding OD600 value of the respective wells. The average fluorescence of control wells was used as a relative measure for 100% activation of the agr-circuit, and bar graphs were generated using GraphPad Prism 10.4 software. All assays were performed in at least a biological duplicate.
(§2) Overnight cultures of the reporter strains were grown in TSB medium containing chloramphenicol (CAM, 10 μg/mL for S. aureus) or erythromycin (ERM, 10 μg/mL of S. epidermidis and S. lugdunensis) and diluted 1:100 in fresh TSB medium containing the same antibiotic. Assays were performed in sterile black 96-well plates with clear bottoms. Peptide solutions (15 μL) in 1:5 serial dilutions from DMSO stock solutions (1 mM) in TSB medium were added to the 96-well plate in technical duplicate followed by diluted bacterial overnight cultures (135 μL). Control wells for 100% agr activity were wells replacing the peptide solution with TSB medium (15 μL). Wells containing 150 μL TSB medium were used to measure background fluorescence. The 96-well plates were incubated in a humidified incubator at 37°C shaking at 1,000 rpm for 22–24 h and fluorescence (for GFP: excitation 479 nm, emission 520 nm; for YFP: excitation 500 nm, emission 541 nm; automatic gain), and OD600 values were subsequently measured using a plate reader. Background fluorescence was subtracted from all wells and further normalized to the corresponding OD600 value of the respective wells. The average fluorescence of control wells was used as a relative measure for 100% activation of the agr-circuit. Relative agr activity was plotted to obtain IC50 values by non-linear regression with variable slope using GraphPad Prism 10.4 software. All assays were performed in biological triplicate.

SA AgrC-I = SA AgrC-I (Staphylococcus aureus, UniProt O07911); experiment: β-Lactamase assay, reporter strain RN10829 (P2-agrA:P3-blaZ) with pagrC-I; format: cell-based
Sequence of SA AgrC-I (O07911 entry or part of it): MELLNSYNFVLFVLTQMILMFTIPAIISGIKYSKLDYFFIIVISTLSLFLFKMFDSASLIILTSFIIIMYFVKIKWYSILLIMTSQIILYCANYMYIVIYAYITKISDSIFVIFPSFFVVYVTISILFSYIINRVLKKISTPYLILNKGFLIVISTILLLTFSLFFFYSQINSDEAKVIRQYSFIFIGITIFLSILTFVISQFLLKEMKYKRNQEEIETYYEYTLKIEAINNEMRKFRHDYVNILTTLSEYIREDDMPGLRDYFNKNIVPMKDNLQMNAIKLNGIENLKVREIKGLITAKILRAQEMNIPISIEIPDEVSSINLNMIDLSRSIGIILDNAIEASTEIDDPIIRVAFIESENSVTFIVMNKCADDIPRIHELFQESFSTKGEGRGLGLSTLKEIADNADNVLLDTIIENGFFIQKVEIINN
From the text: The β-lactamase reporter strain RN10829 (P2-agrA:P3-blaZ) ([62]), with pagrC-I ([63]), pagrC-II, pagrC-III, or pagrC-IV ([11]), substituting the native agr locus with a chromosomal integration of P2-agrA and P3-blaZ and a plasmid from which a wild-type variant of the corresponding AgrC is expressed, was used to assess inhibition and activation of the AgrC receptor via β-lactamase activity in response to varying concentrations of the QS modulating peptides. Overnight cultures of the reporter strains in TSB medium were diluted 1:250 in fresh TSB medium and grown to OD600 = 0.35–0.40 (early exponential phase) at 37°C. Peptide solutions (10 μL) in 1:10 serial dilutions from DMSO stock solutions (1 mM) in TSB medium (final concentrations = 10 μM–10 pM) were added to each well of a clear 96-well plate as well as solutions (10 μL) of cognate AIP (final concentration = 100 nM) in TSB medium followed by 80 μL of bacterial cells. […] The 96-well plates were incubated at 37°C shaking at 200 rpm for 1 h and immediately frozen down at −80°C to minimize growth during nitrocefin treatment. Next, the 96-well plates were thawed, and OD600 values were determined using a plate reader followed by the addition of 50 μL of nitrocefin solution to the wells (final concentration = 33.3 μg/mL). β-Lactamase activity was monitored at OD486 every 20 s for 10 min at 37°C using a plate-reader. Linear nitrocefin conversion rates were plotted to obtain IC50 values by non-linear regression with variable slope using GraphPad Prism 10.4 software. Assays were performed at least as duplicate determinations in biological triplicate.

SA AgrC-II = SA AgrC-II (Staphylococcus aureus, UniProt O33587); experiment: β-Lactamase assay, reporter strain RN10829 (P2-agrA:P3-blaZ) with pagrC-II; format: cell-based; conditions: for IC50, SA AgrC-II, b-lactamase assay: 100 nM cognate AIP, ± SEM, -b = no inhibition recorded at the highest AIP concentration tested, -a = only partial inhibition observed, this study (curves in Fig. S20)
Sequence of SA AgrC-II (O33587 entry or part of it): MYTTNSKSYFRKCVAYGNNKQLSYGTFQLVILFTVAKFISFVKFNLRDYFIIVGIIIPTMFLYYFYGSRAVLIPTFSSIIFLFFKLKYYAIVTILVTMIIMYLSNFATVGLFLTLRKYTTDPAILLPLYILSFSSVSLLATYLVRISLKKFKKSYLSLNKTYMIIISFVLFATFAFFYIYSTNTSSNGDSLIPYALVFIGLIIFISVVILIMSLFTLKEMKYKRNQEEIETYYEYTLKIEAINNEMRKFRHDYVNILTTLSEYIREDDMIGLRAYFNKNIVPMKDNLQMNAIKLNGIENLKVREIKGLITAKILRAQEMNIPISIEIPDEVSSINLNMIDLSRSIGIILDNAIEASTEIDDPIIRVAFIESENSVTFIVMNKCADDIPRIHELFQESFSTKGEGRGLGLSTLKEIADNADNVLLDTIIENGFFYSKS
From the text: (§3) The β-lactamase reporter strain RN10829 (P2-agrA:P3-blaZ) ([62]), with pagrC-I ([63]), pagrC-II, pagrC-III, or pagrC-IV ([11]), substituting the native agr locus with a chromosomal integration of P2-agrA and P3-blaZ and a plasmid from which a wild-type variant of the corresponding AgrC is expressed, was used to assess inhibition and activation of the AgrC receptor via β-lactamase activity in response to varying concentrations of the QS modulating peptides. Overnight cultures of the reporter strains in TSB medium were diluted 1:250 in fresh TSB medium and grown to OD600 = 0.35–0.40 (early exponential phase) at 37°C. Peptide solutions (10 μL) in 1:10 serial dilutions from DMSO stock solutions (1 mM) in TSB medium (final concentrations = 10 μM–10 pM) were added to each well of a clear 96-well plate as well as solutions (10 μL) of cognate AIP (final concentration = 100 nM) in TSB medium followed by 80 μL of bacterial cells. Control wells for 100% β-lactamase activity were wells replacing peptide solution with TSB media (10 μL), and control wells for 0% β-lactamase activity were wells replacing both peptide and cognate AIP solutions with TSB medium (20 μL). The 96-well plates were incubated at 37°C shaking at 200 rpm for 1 h and immediately frozen down at −80°C to minimize growth during nitrocefin treatment. Next, the 96-well plates were thawed, and OD600 values were determined using a plate reader followed by the addition of 50 μL of nitrocefin solution to the wells (final concentration = 33.3 μg/mL). β-Lactamase activity was monitored at OD486 every 20 s for 10 min at 37°C using a plate-reader. Linear nitrocefin conversion rates were plotted to obtain IC50 values by non-linear regression with variable slope using GraphPad Prism 10.4 software. Assays were performed at least as duplicate determinations in biological triplicate.

SA AgrC-III = SA AgrC-III (Staphylococcus aureus, UniProt O33590); experiment: β-Lactamase assay, reporter strain RN10829 (P2-agrA:P3-blaZ) with pagrC-III; format: cell-based; conditions: for IC50, SA AgrC-III, b-lactamase assay: 100 nM cognate AIP, ± SEM, -b = no inhibition recorded at the highest AIP concentration tested, -a = only partial inhibition observed, this study (curves in Fig. S21)
Sequence of SA AgrC-III (O33590 entry or part of it): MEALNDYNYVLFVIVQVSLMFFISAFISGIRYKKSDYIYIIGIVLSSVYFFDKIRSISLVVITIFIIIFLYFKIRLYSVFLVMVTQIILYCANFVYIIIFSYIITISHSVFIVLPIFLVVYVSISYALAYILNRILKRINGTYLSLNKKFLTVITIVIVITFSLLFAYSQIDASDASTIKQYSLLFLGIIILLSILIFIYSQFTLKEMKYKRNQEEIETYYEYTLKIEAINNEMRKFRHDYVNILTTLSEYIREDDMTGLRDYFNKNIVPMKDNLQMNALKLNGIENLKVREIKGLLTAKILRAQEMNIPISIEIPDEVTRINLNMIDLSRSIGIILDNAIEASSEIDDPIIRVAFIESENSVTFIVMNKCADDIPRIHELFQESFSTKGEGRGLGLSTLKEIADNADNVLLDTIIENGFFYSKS
From the text: as §3

SA AgrC-IV = SA AgrC-IV (Staphylococcus aureus, UniProt Q309Z2); experiment: β-Lactamase assay, reporter strain RN10829 (P2-agrA:P3-blaZ) with pagrC-IV; format: cell-based; conditions: for IC50, SA AgrC-IV, b-lactamase assay: 100 nM cognate AIP, ± SEM, -b = no inhibition recorded at the highest AIP concentration tested, -a = only partial inhibition observed, this study (curves in Fig. S22)
Sequence of SA AgrC-IV (Q309Z2 entry or part of it): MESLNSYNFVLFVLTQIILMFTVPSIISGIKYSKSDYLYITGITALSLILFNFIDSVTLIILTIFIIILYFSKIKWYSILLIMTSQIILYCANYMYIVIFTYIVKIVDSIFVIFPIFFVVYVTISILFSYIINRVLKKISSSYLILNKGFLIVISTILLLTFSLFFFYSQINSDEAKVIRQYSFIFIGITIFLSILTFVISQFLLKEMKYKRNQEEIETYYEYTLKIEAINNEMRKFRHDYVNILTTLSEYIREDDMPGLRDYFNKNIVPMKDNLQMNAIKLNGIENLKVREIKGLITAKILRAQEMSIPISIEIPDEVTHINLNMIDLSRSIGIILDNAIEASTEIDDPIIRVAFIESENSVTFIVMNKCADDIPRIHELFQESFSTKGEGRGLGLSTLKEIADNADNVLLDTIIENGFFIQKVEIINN
From the text: as §3

[1] = tested on: S. epidermidis (SE) agr-I; conditions: fluorescence, cited from earlier work
[2] = tested on: S. epidermidis (SE) agr-II; conditions: fluorescence; from supernatant; ref (18); cited from earlier work
[3] = tested on: S. epidermidis (SE) agr-III; conditions: fluorescence; from supernatant; ref (18); cited from earlier work
S. aureus agr-II = S. aureus agr-II (Staphylococcus aureus, UniProt O33587); experiment: cell-based
Sequence of S. aureus agr-II (O33587 entry or part of it): as the sequence (O33587 entry or part of it) above
Protocol: as §1, §2

S. aureus agr-IV = S. aureus agr-IV (Staphylococcus aureus, UniProt Q309Z2); experiment: cell-based; format: cell-based; conditions: fluorescent reporter strain; peptides tested at 1000, 50, 2.5, 0.125 nM or in dose-response
Sequence of S. aureus agr-IV (Q309Z2 entry or part of it): as the sequence (Q309Z2 entry or part of it) above
Protocol: as §1, §2

S. epidermidis agr-III = S. epidermidis agr-III (Staphylococcus epidermidis, UniProt Q8VSX2); experiment: cell-based; format: cell-based
Sequence of S. epidermidis agr-III (Q8VSX2 entry or part of it): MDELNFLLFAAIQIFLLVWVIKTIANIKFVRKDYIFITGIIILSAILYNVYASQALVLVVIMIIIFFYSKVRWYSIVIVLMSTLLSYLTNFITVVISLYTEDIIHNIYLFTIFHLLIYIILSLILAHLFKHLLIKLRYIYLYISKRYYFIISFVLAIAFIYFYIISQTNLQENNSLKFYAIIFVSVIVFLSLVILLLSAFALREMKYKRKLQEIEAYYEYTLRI
Protocol: as §1, §2

S. aureus (SA) agr-II = conditions: fluorescence, cited from earlier work
S. aureus (SA) agr-III = conditions: fluorescence, cited from earlier work
S. aureus (SA) agr-IV = conditions: fluorescence, cited from earlier work
S. aureus (SA) agr-I = conditions: fluorescence; ref (15); cited from earlier work

CC(C)C[C@@H]1NC(=O)[C@H](Cc2ccc(O)cc2)NC(=O)[C@H](CO)NC(=O)[C@H](C)NC(=O)[C@@H](NC(=O)[C@@H]2CCCN2C(=O)[C@H](CC(N)=O)NC(=O)[C@H](Cc2ccc(O)cc2)NC(=O)[C@H](CCCCN)NC(=O)[C@H](C)NC(=O)[C@H](C)NC(=O)[C@@H](N)CC(N)=O)CSC1=O [compound 7, S. epidermidis AIP-III] (H-NAAKYNPCASYL; thioester 8-C)
QS interaction in words (inhibition / activation), S. epidermidis agr-II (S. epidermidis agr-II): activator
IC50 (SA AgrC-I): > 10000 nM
IC50, SA AgrC-II, b-lactamase assay (SA AgrC-II): -b
IC50 (SA AgrC-III): > 10000 nM
IC50, SA AgrC-IV, b-lactamase assay (SA AgrC-IV): -b
effect from supernatant (% inhibition, activation or no effect), SE agr-I ([1]; from supernatant, ref (18)): ~ 50%
IC50 ([1]; ref (11)): 34.3 nM
effect from supernatant (% inhibition, activation or no effect), SE agr-II [2]: no effect
effect from supernatant (% inhibition, activation or no effect), SE agr-III [3]: activation

CC[C@H](C)[C@H](NC(=O)[C@@H](N)CC(=O)O)C(=O)N[C@H]1CSC(=O)[C@H](Cc2ccccc2)NC(=O)[C@H](Cc2ccc(O)cc2)NC(=O)[C@H](C)NC(=O)[C@H](CC(N)=O)NC1=O [compound 8, S. lugdunensis AIP-I] (H-DICNAYF; thioester 3-C; N-terminus assumed)
IC50 (S. aureus agr-II): 234 nM
QS interaction in words (inhibition / activation), S. aureus agr-IV (S. aureus agr-IV): no effect at 1000 nM
IC50 (S. epidermidis agr-III): 66.8 ± 2.9 nM
IC50, SA AgrC-II, b-lactamase assay (SA AgrC-II): -b
IC50 (SA AgrC-III): > 1000 nM
IC50, SA AgrC-IV, b-lactamase assay (SA AgrC-IV): -b
IC50 (S. aureus (SA) agr-II; ref (10)): 419 nM
IC50 (S. aureus (SA) agr-III; ref (10)): 36.6 nM
IC50 (S. aureus (SA) agr-IV; ref (10)): > 1000 nM

CC[C@H](C)[C@H](NC(=O)[C@@H](N)[C@@H](C)O)C(=O)N[C@@H](CO)C(=O)N[C@@H](CO)C(=O)N[C@H](C(=O)N[C@@H](CCCCN)C(=O)N1CCC[C@H]1C(=O)N[C@H]1CSC(=O)[C@H](C(C)C)NC(=O)[C@H](Cc2ccccc2)NC(=O)CNC(=O)[C@H]([C@@H](C)O)NC1=O)C(C)C [compound 18, S. cohnii AIP-I] (H-TISSVKPCTGFV; thioester 8-C)
IC50 (SA AgrC-I): > 10000 nM
IC50, SA AgrC-II, b-lactamase assay (SA AgrC-II): -b
IC50, SA AgrC-III, b-lactamase assay (SA AgrC-III): -b
IC50, SA AgrC-IV, b-lactamase assay (SA AgrC-IV): -b

C[C@@H](O)[C@H](NC(=O)[C@H](CO)NC(=O)[C@@H](N)Cc1ccc(O)cc1)C(=O)N[C@H]1CSC(=O)[C@H](Cc2ccccc2)NC(=O)[C@H](Cc2ccc(O)cc2)NC(=O)[C@H](Cc2ccc(O)cc2)NC(=O)[C@H](CO)NC1=O [compound 20, S. caprae AIP-I] (H-YSTCSYYF; thioester 4-C)
IC50 (SA AgrC-I): 5.7 ± 0.8 nM
IC50 (SA AgrC-II): 252 ± 44 nM
IC50, SA AgrC-III, b-lactamase assay (SA AgrC-III): -a
IC50 (SA AgrC-IV): 199 ± 19 nM
IC50 (S. aureus (SA) agr-I): 0.6 ± 0.02 nM
IC50 (S. aureus (SA) agr-II; ref (15)): 0.26 ± 0.08 nM
IC50 (S. aureus (SA) agr-III; ref (15)): 0.2 nM
IC50 (S. aureus (SA) agr-IV; ref (15)): 8.98 ± 0.32 nM

C[C@H](N)C(=O)N[C@@H](CC(N)=O)C(=O)N1CCC[C@H]1C(=O)N[C@H]1CSC(=O)[C@H](Cc2ccccc2)NC(=O)[C@H](Cc2ccc(O)cc2)NC(=O)CNC(=O)[C@H](C)NC1=O [compound 21, S. pasteuri AIP-I] (H-ANPCAGYF; thioester 4-C)
IC50 (SA AgrC-I): 155 ± 34 nM
IC50, SA AgrC-II, b-lactamase assay (SA AgrC-II): -b
IC50 (SA AgrC-III): 191 ± 18 nM
IC50 (SA AgrC-IV): > 1000 nM

CC(C)C[C@H](NC(=O)[C@H](C)NC(=O)CNC(=O)[C@H](C)NC(=O)[C@@H](NC(=O)[C@H](C)N)[C@@H](C)O)C(=O)N1CCC[C@H]1C(=O)N[C@H]1CSC(=O)[C@H](Cc2ccccc2)NC(=O)[C@H](Cc2ccccc2)NC(=O)CNC(=O)CNC1=O [compound 23, S. succinus AIP-I] (H-ATAGALPCGGFF; thioester 8-C)
IC50 (SA AgrC-I): 117 ± 26 nM
IC50 (SA AgrC-II): 854 ± 65 nM
IC50 (SA AgrC-III): > 1000 nM
IC50 (SA AgrC-IV): > 1000 nM
